Publication PMC10852989, “Combining cisplatin and a STING agonist into one molecule for metalloimmunotherapy of cancer” (National Science Review, 2024)
Where two headings read alike, the source gives them in different places.

What was measured:
PANC-1 cells [1] = assay: cellular uptake of Pt by ICP-MS, PANC-1; format: cell-based, human; details: PANC-1 cells, 6 h incubation, ICP-MS
Protocol: Cellular uptake. All incubations were carried out in the dark. After the designated incubation period, the medium was removed, and the cells were harvested with trypsin and rinsed twice with PBS (1×, 20 mM, pH 7.4), followed by digestion and ICP-MS.
Cancer cells were seeded in a 6-well plate at a density of 5×10^5 cells per well. After incubation for 24 h, the cells were treated with each complex for 6 h.
Cancer cells preincubated with metabolic inhibitor (MIs) were also evaluated. These cells were preincubated with 2-deoxy-D-glucose and oligomycin (50 mM and 5 μM, respectively, 1 h) or NH4Cl (50 mM, 1 h) at 37 ℃ followed by incubation with DMEM containing CDDP, I or II at 37 ℃ for 6 h.
Digestion. Cell pellets were collected by centrifugation and then digested with nitric acid (100 µL) for 2 h at 95 °C, followed by the addition of H2O2 (50 µL) at 95 °C for 0.5 h. HCl (100 µL) was added and kept at 95 °C until the total volume was less than 20 μL. Water was then added to dilute the solution to 1 mL, and the final Pt content was determined by ICP-MS.

Pan02 tumors = assay: in vivo antitumor activity, C57BL/6 mice bearing Pan02 tumors; parameters: species or system mouse; details: C57BL/6 mice, Pan02 tumors, 10.0 μmol/kg every 2 days for 16 days, intravenous
Protocol: In vivo antitumor activity. Female C57BL/6 mice (6–8 weeks old) were subcutaneously implanted with pan02 cells (2 × 10^6) in the right flank. Once the tumor volume reached approximately 60 mm^3, the mice were assigned to 4 groups at random (n = 5–8) and received treatment with PBS, CDDP (10.0 μmol/kg), I (10.0 μmol/kg), or a mixture of CDDP (10.0 μmol/kg) and MSA-2 (10.0 μmol/kg). The mice received 9 treatments. Changes in body weight and tumor volume were recorded. All the experimental procedures utilizing mice were performed in accordance with the Guidelines for Care and Use of Laboratory Animals of Nanjing University and experiments were approved by the Institutional Animal Care and Use Committee of Nanjing University (IACUC-2101001, SL-019-00).

[2] = system: BMDCs cultured with Pan02 cell CM; assay: IFN-β ELISA of BMDCs incubated with conditioned medium of drug-treated Pan02 cells; format: cell-based, mouse; details: Pan02 treated 48 h at 5 μM (Pt-E-I 20 μM); BMDCs 50% CM, 18 h
Protocol: (§1) ELISA. Bone marrow-derived dendritic cells (BMDCs) were prepared according to the following method. Briefly, femurs and tibias were removed from 4-6 week-old C57BL/6 mice, and the bone marrow cells were isolated. The bone marrow cells were incubated in T cell medium [RPMI-1640 medium (with GlutaMAX), supplemented with 10% FBS, 1% HEPES, 1% NEAA, 1% sodium pyruvate, and 0.1% βME] containing 20 ng/mL GM-CSF for 6 days after erythrocyte lysis, during which time half of the medium was replaced with fresh T cell medium once and the cytokines were supplemented. Then, the BMDCs were harvested on day 7 for further study.
Pan02 tumor cells were treated with various drugs at a concentration of 5 μM for 48 h, and then the drug-pretreated tumor cell supernatant was obtained by centrifugation at a speed of 12000 rpm/min for 5 min and used as conditioned media (CM) subsequently.
(§2) BMDCs were cultured with 50% CM plus 50% fresh medium for 18 h. In addition, BMDCs were cultured with fresh medium containing different complexes or mixtures (15 μM CDDP and I, a mixture of I and 8 equiv. AsA, and equal AsA). Then, all the BMDC supernatant was collected and centrifuged for subsequent cytokine analysis using ELISA kits, which were performed according to the manufacturer’s instructions.

PANC-1 cells [3] = assay: 72 h MTT cytotoxicity, PANC-1; format: cell-based, human
Protocol: (§3) Cytotoxicity. Tumor cells were cultured overnight after inoculation in RPMI-1640 medium or DMEM supplemented with 10% FBS. All cultures were maintained in an incubator in a highly humidified atmosphere of 95% air with 5% CO2 at 37 °C. Growth inhibition was measured with an MTT assay. Briefly, 2800–7000 cells per well in culture medium (100 μL) were plated in 96-well plates (Corning). The cells were treated in triplicate with different concentrations of complexes at 37 ℃ for 72 h. Stock solutions of CDDP and oxoplatin were prepared in PBS, while stock solutions of conjugates I and II and the ligand MSA-2 were prepared in DMSO. The stock solutions were diluted in complete medium (DMSO < 0.5%). An aliquot of MTT solution (40 μL, 2.5 mg·mL^–1) in PBS buffer was added to each well and incubated for 4 h. The supernatant was removed and DMSO (150 μL) was added to solubilize the formazan crystals. The amount of formazan was determined using a microplate reader at 570 nm after the plates were shaken for 30 min. The optical density (OD) was used to calculate the percentage of viable cells relative to untreated control values. Background readings for MTT incubated in cell-free medium were subtracted from each value before calculation. […] The mean IC50 values were calculated using data from three replicates.

HK-2 cells = assay: 72 h MTT cytotoxicity, HK-2; format: cell-based
Protocol: as §3

MCF-7 cells = assay: 72 h MTT cytotoxicity, MCF-7; format: cell-based, human
Protocol: as §3

[4] = H&E histology of major organs after treatment; format: in vivo, mouse; details: C57BL/6 mice after treatment, 10.0 μmol/kg
Protocol: Hematoxylin and eosin staining. Tissue samples were subjected to histopathological examination using hematoxylin and eosin (H&E) staining. Mouse organs (heart, liver, spleen, lungs and kidneys) were collected in 4% paraformaldehyde for proper fixation and then embedded in paraffin using a tissue embedding machine. Sections were prepared in an orderly manner by dewaxing, dehydration, and H&E staining. The tissue morphology was observed under a fluorescence microscope (Olympus BX41, Japan).

BxPC3 cells = assay: 72 h MTT cytotoxicity, BxPC3; format: cell-based, human
Protocol: as §3

Pan02 cells = assay: 72 h MTT cytotoxicity, Pan02; format: cell-based, mouse
Protocol: as §3

Caov3 cells = assay: 72 h MTT cytotoxicity, Caov3; format: cell-based, human
Protocol: as §3

[5] = octanol-water partition coefficient, shake-flask, ICP-MS; format: physicochemical; details: n-octanol / phosphate buffer 10 mM pH 7.4, room temperature
Protocol: Lipid-water partition coefficient. The shake-flask method was used to measure the partition coefficients of CDDP, I and II. Briefly, a mixture containing equal volumes of n-octanol and phosphate buffer (10 mM, pH 7.4) was shaken on a mechanical shaker at room temperature for 24 h. Complexes (10 mM) in phosphate buffer (presaturated with n-octanol) were mixed with an equal volume of n-octanol (presaturated with phosphate buffer), and the mixture was shaken for 24 h at room temperature. Centrifugation was carried out at 2500 rpm for 30 min to separate the two phases. The aqueous layer was carefully separated, and the Pt content in the initial and final aqueous phases was analyzed by inductively coupled plasma mass spectrometry (ICP-MS). The log PO/W was measured using the following equation: log PO/W = log [(Ptinitial ‒ Ptfinal)/Ptfinal].

[6] = reduction by ascorbic acid (AsA) followed by 1H-/195Pt-NMR; format: physicochemical; details: 20 mM, 8 equiv. AsA, 5:1 d6-DMSO:D2O, 37 °C, dark
Protocol: Reduction of I and II. Samples were prepared by reacting I or II (20 mM) with 8 equiv. AsA in 5:1 d6-DMSO:D2O solutions. The time course of the reaction was monitored by ^1H-NMR and ^195Pt-NMR after incubation of the samples were incubated at 37 °C for 0, 3, 6, 12, 24, 36, 48, 60, 72, 84, 96, or 120 h in the dark.

[7] = system: cancer cell lines (MCF-7, Caov3, PANC-1, BxPC3, Pan02); assay: 72 h MTT cytotoxicity, panel of cancer cell lines; format: cell-based; details: read-out: IC50 in these cancer cell lines
Protocol: as §3

STING pathway in BMDCs = assay: IFN-β and IL-6 ELISA in supernatants of BMDCs treated with complexes; format: cell-based, mouse; details: 18 h, ELISA, 15 μM
Protocol: as §1, §2

Compound | cellular Pt content (PANC-1 cells [1]) | IFN-β secretion by BMDCs incubated with treated Pan02 cell CM [2] | IC50 (PANC-1 cells [3]) | IC50 (HK-2 cells; human normal kidney cell line) | IC50 (MCF-7 cells) | IC50 (BxPC3 cells) | IC50 (Pan02 cells) | IC50 (Caov3 cells) | also measured
[NH2][Pt]([NH2])([Cl])[Cl] [CDDP, cisplatin] | 1.7 ng Pt/mg protein | slightly increased | 11.1 ± 1.3 µM | 8.2 ± 0.5 µM | 5.4 ± 0.3 µM | 1.6 ± 0.1 µM | 8.3 ± 0.6 µM | 26.8 ± 2.2 µM | tumor volume (Pan02 tumors): 200.2 ± 20.6 mm^3; histological findings in major organs [4]: substantial blood cell stasis in the liver blood sinuses and thickening of the alveolar wall as well as large infiltrates of inflammatory cells in the trachea and bronchus
COc1cc2cc(C(=O)CCC(=O)[O][Pt]([NH2])([NH2])([Cl])([Cl])[O]C(=O)CCC(=O)c3cc4cc(OC)c(OC)cc4s3)sc2cc1OC [conjugate II] | 2.3 ng Pt/mg protein | – | 6.9 ± 0.9 µM | 3.6 ± 1.2 µM | > 64 µM | 4.9 ± 0.8 µM | 8.4 ± 0.7 µM | 5.3 ± 0.4 µM | octanol-water partition coefficient (logPo/w) [5]: 2.1; time at which reduction by AsA finished [6]: 120 h
N.N.[Cl-].[Cl-].[OH-].[OH-].[Pt+4] [Oxoplatin, Cis-diamminedichloro-trans-dihydroxyplatinum] | – | – | > 50 µM | 38.7 ± 4.1 µM | 8.2 ± 0.7 µM | > 50 µM | > 50 µM | > 50 µM | –
COc1cc2cc(C(=O)CCC(=O)O)sc2cc1OC [MSA-2] | – | moderate | – | – | – | – | – | – | IC50 [7]: > 50 µM; IC50 (PANC-1 cells [3]; Homo sapiens, PANC-1): > 50 µM; IC50 (HK-2 cells; HK-2, human normal kidney cell line): > 50 µM; IC50 (MCF-7 cells; Homo sapiens, MCF7): > 50 µM; IC50 (BxPC3 cells; Homo sapiens, BXPC-3): > 50 µM; IC50 (Pan02 cells; Mus musculus, Pan02): > 50 µM; IFN-β secretion by BMDCs (STING pathway in BMDCs): robust; IL-6 secretion by BMDCs (STING pathway in BMDCs): robust; IC50 (Caov3 cells; Homo sapiens, Caov-3): > 50 µM
